In PubChem BioAssay (NCI):
Where “and” joins values, the source holds several entries; their conditions need not be identical. Identical values can stand only once.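 Growth conditions: 96-well plates. Treatment: test compound, 48 hours, 5 concentrations. Analysis: linear interpolation between bracketing concentrations; unreached endpoints set to highest concentration. At the GI50, growth is halved. TGI is the concentration that stops growth completely.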

Key:
Test in all cases: inhibition of tumour cell growth, NCI panel, 48 h
A498 renal = tested on: A498 renal
A549 NSCLC = tested on: A549 NSCLC
HCT-116 colon = tested on: HCT-116 colon
HOP-92 NSCLC = tested on: HOP-92 NSCLC
NCI-H226 lung = tested on: NCI-H226 lung
NCI-H23 lung = tested on: NCI-H23 lung
SK-MEL-28 melanoma = tested on: SK-MEL-28 melanoma
TK-10 renal = tested on: TK-10 renal
U251 CNS = tested on: U251 CNS
UO-31 renal = tested on: UO-31 renal

Row | SMILES | TGI (A498 renal) | TGI (A549 NSCLC) [µM] | TGI (HCT-116 colon) [µM] | TGI (HOP-92 NSCLC) | TGI (NCI-H226 lung) | TGI (NCI-H23 lung) [µM] | TGI (SK-MEL-28 melanoma) [µM] | TGI (TK-10 renal) [µM] | TGI (U251 CNS) [µM] | TGI (UO-31 renal) [µM] | GI50 (A498 renal) | GI50 (A549 NSCLC) [µM] | GI50 (HCT-116 colon) | GI50 (HOP-92 NSCLC) [µM] | GI50 (NCI-H226 lung) [µM] | GI50 (NCI-H23 lung) | GI50 (SK-MEL-28 melanoma) | GI50 (TK-10 renal) | GI50 (U251 CNS) | GI50 (UO-31 renal)
1 | COc1ccc(C2SC(N)=Nc3c2c(C)nn3C(=O)c2ccncc2)cc1 (stereo unspecified) | > 100 µM | > 100 | > 100 | > 100 µM | > 100 µM | > 100 | > 100 | > 100 | > 100 | > 100 |  |  |  |  |  |  |  |  |  | 
2 | COc1cc([C@@H]2c3cc4c(cc3[C@H](OC3OC5COC(c6ccccc6)OC5C(O)C3O)[C@H]3COC(=O)[C@H]23)OCO4)cc(OC)c1OC (stereo partly specified) | 3.4 µM | 5.68 |  | 18.8 µM | 37.6 µM | 14.5 | 3.06 | 5.51 | 2.02 | 3.85 | 0.364 µM | 0.344 | 0.346 µM | 2.73 | 4.58 | 0.418 µM | 0.71 µM | 1.13 µM | 0.34 µM | 0.366 µM
3 | Cc1cc(O)c2c(c1)C[C@@H](O)C1=C2C(=O)c2c(O)ccc(OC3CC(O)C(OC4CC(OC5CCC(OC6CC(O)C(OC7CC(OC8CCC(O)C(C)O8)C(O)C(C)O7)C(C)O6)C(C)O5)C(O)C(C)O4)C(C)O3)c2C1=O (stereo partly specified) |  |  |  | 0.316 µM and 0.684 µM | 0.461 µM and 3.07 µM |  |  |  |  |  | 2.72 µM and 2.47 µM | 2.38 | 0.38 µM and 0.281 µM | 0.3 | 1.48 | 0.343 µM and 0.8 µM | 0.267 µM and 1.44 µM | 2.13 µM and 2.93 µM | 0.469 µM and 0.306 µM | 1.39 µM and 1.3 µM
4 | CCOC(=O)c1cc2c(n1Cc1cccc(OC)c1)-c1oncc1CC2 | 3.39 µM | > 100 | 19.9 | > 100 µM | > 100 µM | > 100 | > 100 | > 100 | > 100 | 78.5 | 0.156 µM | 9.42 | 0.47 µM | 10.5 | 7.46 | 3.42 µM | 0.97 µM | 7.51 µM | 0.909 µM | 1.91 µM
5 | O=C(Cn1ccnc1[N+](=O)[O-])NCCO | > 100 µM | > 100 | > 100 | > 100 µM | > 100 µM | > 100 | > 100 | > 100 | > 100 | > 100 |  |  |  |  |  |  |  |  |  | 
6 | COc1c(O)c2ccccc2c2cc(O)ccc12 | 24.1 µM | 23.9 | 13.8 | 24.3 µM | 31.6 µM | 10.6 | 11.9 | 61.2 | 17.9 | 11.4 |  |  |  |  |  |  |  |  |  | 
7 | CCC12C=CCN3CC[C@]4(C(=C(C(=O)OC)[C@@H]1Nc1ncnc5c1ncn5C1OC(COC(C)=O)C(OC(C)=O)C1OC(C)=O)Nc1ccccc14)C32 (stereo partly specified) | 4.56 µM | 13.2 | 5.55 | 9.02 µM | 5.22 µM | 4.06 | 10.8 | 6.58 | 4.91 | 13.2 |  |  |  |  |  |  |  |  |  | 
8 | CCc1nc(N)nc(N)c1-c1ccc(Cl)cc1 | > 100 µM and 42.4 µM | > 100 | > 100 | > 100 µM | > 100 µM | > 100 | > 100 | > 100 | > 100 | > 100 | 24.1 µM | 2.23 | 2.85 µM | 17.4 | 47.9 | 7.62 µM | > 100 µM | 88.3 µM | 5.65 µM | 14.5 µM
